The test system of experiment [1] is MDR K. pneumoniae CDC 0106. Put plainly: MIC against MDR clinical isolate. It counts as cell-based. To be noted: Klebsiella pneumoniae; MDR K. pneumoniae CDC 0106; read-out: MIC. On the procedure:
(§1) Minimum Inhibitory Concentration (MIC). MICs were determined by performing two-fold serial dilutions of compound in Mueller Hinton II cation-adjusted broth to a final volume of 0.1 m1 in round-bottom 96-well assay plates (Corning Life Sciences No 3788). Each well was inoculated with 5×10^5 CFU/ml and incubated at 37° C. without agitation for 18 hours. Plates were scored by eye, and the lowest compound concentration preventing visible growth was determined to be the MIC.

A further experiment has as its system E. aerogenes ATCC 13408. Put plainly: MIC, broth microdilution. The experiment is classed as cell-based. To be noted: Klebsiella aerogenes, ATCC13408, read-out: MIC. On the procedure:
as §1

The next experiment relates to E. cloacae ATCC 13407. Put plainly: MIC, broth microdilution. The experiment is classed as cell-based. Conditions: Enterobacter cloacae, ATCC13407, read-out: MIC. The method, then:
as §1
Background: In broth dilution the organism is exposed to a series of concentrations in liquid medium.

In another experiment the test system is C. werkmanii ATCC 51114. The experiment is described as follows: MIC, broth microdilution. Conditions: Citrobacter werkmanii, ATCC51114, read-out: MIC. It counts as cell-based. The method, then:
as §1

For another experiment, the system named is P. aeruginosa ATCC 27853. The experiment is described as follows: MIC, broth microdilution. It counts as cell-based. Conditions: Pseudomonas aeruginosa, ATCC27853, read-out: MIC. On the procedure: as §1
In the next experiment the test system is K. pneumoniae ATCC 43816. Put plainly: MIC, broth microdilution. It counts as cell-based. The method, then:
as §1

Experiment [2] relates to E. coli ATCC 25922. The experiment is described as follows: MIC, broth microdilution. It counts as cell-based. On the procedure: as §1
The next experiment relates to S. marcescens CDC4385-74. The experiment is described as follows: MIC, broth microdilution. The experiment is classed as cell-based. Conditions: Serratia marcescens, CDC438574, read-out: MIC. The method, then: as §1
For experiment [3], the system named is A. baumannii ATCC 17978. The experiment is described as follows: MIC, broth microdilution. The experiment is classed as cell-based. Conditions: Acinetobacter baumannii, ATCC17978, read-out: MIC. The method, then:
as §1

Experiment [4] deals with E. coli ATCC 25922. Put plainly: Frequency of resistance (FOR). The experiment is classed as cell-based. To be noted: G0775 at 8-fold the MIC; limit of detection 10^−10. The method, then: (§2) 20 independent colonies from each bacterial species were scraped and used to establish an overnight culture. Bacteria were concentrated by centrifugation, and approximately 3×10^9 CFUs were spread on cation adjusted Mueller Hinton agarose (MHA) plates containing G0775 at 2- to 8-times the MIC. The MHA plates were prepared from Mueller Hinton II cation adjusted broth (BBL™ 212322) and SeaKem LE Agarose (17 g/L; Lonza) as per manufactures instructions. Resistance frequency for each strain was calculated by dividing the number of colonies formed after a 48 hour incubation at 37° C. by the initial viable cell count.

In experiment [5] the test system is A. baumannii ATCC 17978. The experiment is described as follows: Frequency of resistance (FOR). The experiment is classed as cell-based. Conditions: G0775 at 8-fold the MIC; limit of detection 10^−10. On the procedure:
as §2

For experiment [6], the system named is K. pneumoniae strain ATCC 43816. The experiment is described as follows: Mucin peritonitis survival study in mice. It counts as in vivo. Conditions: 5 mg/kg BID subcutaneously on day of infection; out to 84 hours. On the procedure:
CD1 mice (Charles River Laboratories) were infected through intraperitoneal injection of 0.4 mL K. pneumoniae (ATCC 43816) at 3×10^5 CFU/mouse in 5% mucin (Sigma M1778). At 2 and 11 hours post infection, G0775 was given at the indicated dose subcutaneously. Ciprofloxacin (Claris Lifesciences Inc.) was dosed at 80 mg/kg subcutaneously once at 2 hour post infection. Mice were monitored for body conditioning and survival until 84 hours post infection.

A word on the MIC: it is the lowest concentration that inhibits growth of the organism.

Each structure is given as a SMILES string. Values after ≈ are worked out from the molar mass of the structure shown.

For the compound `Cc1nc(-c2ccc(C(C)(C)C)cc2)ncc1C(=O)NC(CCN)C(=O)N(C)C1C(=O)NC(C)C(=O)NC(C(=O)NCC#N)Cc2ccc(OCCN)c(c2)-c2cc1ccc2OCCN` (centres unmarked) [G0775], the MIC in experiment [1] was determined as 0.5 µg/mL (≈ 0.562 µM); in the experiment with E. aerogenes ATCC 13408, 0.125 µg/mL (≈ 0.14 µM); with E. cloacae ATCC 13407, 0.25 µg/mL (≈ 0.281 µM); in the experiment on C. werkmanii ATCC 51114, 0.125 µg/mL (≈ 0.14 µM); in the experiment with P. aeruginosa ATCC 27853 it was 4 µg/mL (≈ 4.49 µM); in the experiment on K. pneumoniae ATCC 43816 (Klebsiella pneumoniae, ATCC43816, K. pneumoniae ATCC 43816, read-out: MIC), 0.125 µg/mL (≈ 0.14 µM). Moreover, the MIC in the experiment with E. coli ATCC 25922 [2] (Escherichia coli, ATCC25922, E. coli ATCC 25922, read-out: MIC) worked out at 0.125 µg/mL (≈ 0.14 µM); in the experiment with S. marcescens CDC4385-74 it was 0.125 µg/mL (≈ 0.14 µM); in the experiment on A. baumannii ATCC 17978 [3], 1 µg/mL (≈ 1.12 µM). Also, the “potency relative to arylomycin A-C16” value was above 500 fold with K. pneumoniae ATCC 43816 (K. pneumoniae, more potent than arylomycin A-C16) and above 500 fold with E. coli ATCC 25922 [2] (E. coli, more potent than arylomycin A-C16). Further, the “frequency of resistance (FOR)” value in the experiment with E. coli ATCC 25922 [4] and in the experiment with A. baumannii ATCC 17978 [5] was “below the limit of detection” throughout. The “survival (animal viability)” value in experiment [6] is “full animal viability”.
